According to ChEMBL document CHEMBL4483862, “Open-source discovery of chemical leads for next-generation chemoprotective antimalarials” (2018):

Test system: Plasmodium berghei
Assay: Luciferase/luciferin-expressing antifolate-resistant parasites were used to infect a culture of HepG2 cells that were pre-incubated with compounds. Infected hepatocytes emit light due to the luciferase reaction. Assay results are presented as the percent inhibition of light emission compared to control. […]
Assay type: functional
Settings: sporozoite; for IC90: read-out: LUCIFERASE INFECTION ASSAY - IC90

SMILES | IC90 | other results
Nc1ccccc1SC(CC(=O)c1ccccc1)c1ccc([N+](=O)[O-])cc1 (stereo not given) | > 8.72 µM | IC50 (PBLUC_HILL_SLOPE 4.35, PBLUC_R_SQUARED 0.338, read-out: LUCIFERASE INFECTION ASSAY - IC50): 8.12 µM
CN1/C(=C\C=N\NC(=O)c2cccnc2)C(C)(C)c2ccccc21 | > 10 µM | IC50 (PBLUC_HILL_SLOPE 4.32, PBLUC_R_SQUARED 0.562, read-out: LUCIFERASE INFECTION ASSAY - IC50): 7.23 µM
CNC(=O)CNc1nc(-c2ccccn2)nc2scc(-c3ccccc3)c12 | 7.43 µM | IC50 (PBLUC_HILL_SLOPE 4.47, PBLUC_R_SQUARED 0.505, read-out: LUCIFERASE INFECTION ASSAY - IC50): 4.55 µM
OC(c1cc(F)c(F)c(F)c1)c1nnc(Nc2cc(C(F)(F)F)ccc2F)s1 (stereo not given) | 7.5 µM | IC50 (PBLUC_HILL_SLOPE 4.45, PBLUC_R_SQUARED 0.324, read-out: LUCIFERASE INFECTION ASSAY - IC50): 4.58 µM
Cc1cccc(C)c1NC(=O)N1[C@@H]2CC[C@@H](C2)[C@H]1c1nc2cccc(OCc3ccc(F)cc3)c2[nH]1 | > 10 µM | IC50 (PBLUC_HILL_SLOPE 4.64, PBLUC_R_SQUARED 0.011, read-out: LUCIFERASE INFECTION ASSAY - IC50): > 10 µM
COc1cccc(CN2CCc3c(c(C(=O)NCCCc4ccccc4)nn3Cc3ccncc3)C2)c1 | 5.47 µM | IC50 (PBLUC_HILL_SLOPE 4.39, PBLUC_R_SQUARED 0.179, read-out: LUCIFERASE INFECTION ASSAY - IC50): 3.31 µM
CC(C)(C)c1ccc(-c2cnc3cnc(-c4ccc(C(=O)N5CCOCC5)cc4)cn23)cc1 | > 7.49 µM | IC50 (PBLUC_HILL_SLOPE 4.5, PBLUC_R_SQUARED 0.623, read-out: LUCIFERASE INFECTION ASSAY - IC50): 4.7 µM
Cc1ccc2nc(NC(=O)C(C)Oc3ccccc3)c(C(=O)NC3CCCC3)n2c1 (stereo not given) | 6.95 µM | IC50 (PBLUC_HILL_SLOPE 4.38, PBLUC_R_SQUARED 0.362, read-out: LUCIFERASE INFECTION ASSAY - IC50): 4.21 µM
COc1ccc(-c2cnc3ccc(N[C@H](CO)C(C)C)nn23)cn1 | 4.4 µM | IC50 (PBLUC_HILL_SLOPE 4.47, PBLUC_R_SQUARED 0.471, read-out: LUCIFERASE INFECTION ASSAY - IC50): 2.69 µM
Cc1[nH]c2c(F)cc(F)cc2c(=O)c1I | 9.47 µM | IC50 (PBLUC_HILL_SLOPE 4.58, PBLUC_R_SQUARED 0.0894, read-out: LUCIFERASE INFECTION ASSAY - IC50): 5.86 µM
CCCn1c(NC(=O)c2cccnc2OCC)nc2ccccc21 | > 10 µM | IC50 (PBLUC_HILL_SLOPE 4.52, PBLUC_R_SQUARED 0.28, read-out: LUCIFERASE INFECTION ASSAY - IC50): 7.59 µM
Cc1ccc(C(C)C)c(OCC(=O)N2CCC(c3nc4ccccc4[nH]3)CC2)c1 | 7.21 µM | IC50 (PBLUC_HILL_SLOPE 4.62, PBLUC_R_SQUARED 0.766, read-out: LUCIFERASE INFECTION ASSAY - IC50): 4.48 µM
CC(C)c1ccc2c(ccc[n+]2C)c1 | > 10.5 µM | IC50 (PBLUC_HILL_SLOPE 4.53, PBLUC_R_SQUARED 0.451, read-out: LUCIFERASE INFECTION ASSAY - IC50): 8.36 µM
COc1ccc(COC(=O)Cc2c(C)[nH]c(-c3ccccn3)nc2=O)cc1OC | 8.13 µM | IC50 (PBLUC_HILL_SLOPE 4.54, PBLUC_R_SQUARED 0.664, read-out: LUCIFERASE INFECTION ASSAY - IC50): 5.01 µM
Cn1cc(-c2cn3c(-c4ccc(C#N)cc4)cnc3cn2)cn1 | > 11 µM | IC50 (PBLUC_HILL_SLOPE 4.44, PBLUC_R_SQUARED 0.515, read-out: LUCIFERASE INFECTION ASSAY - IC50): 9.55 µM
CCC(Sc1ncnc2sc(C)c(C)c12)C(=O)Nc1cc(C)on1 (stereo not given) | > 10 µM | IC50 (PBLUC_HILL_SLOPE 4.56, PBLUC_R_SQUARED 0.361, read-out: LUCIFERASE INFECTION ASSAY - IC50): 9.74 µM
N#Cc1ccc(-c2cnc3cnc(/C=C/c4ccccc4)cn23)cc1 | 1.49 µM | IC50 (PBLUC_HILL_SLOPE 4.44, PBLUC_R_SQUARED 0.805, read-out: LUCIFERASE INFECTION ASSAY - IC50): 0.909 µM
O=C(Nc1nc(-c2ccccn2)cs1)c1nn(-c2ccc(F)cc2)c2c1CCCC2 | 8.94 µM | IC50 (PBLUC_HILL_SLOPE 4.43, PBLUC_R_SQUARED 0.595, read-out: LUCIFERASE INFECTION ASSAY - IC50): 5.45 µM
Cc1nn(-c2cccc(C(F)(F)F)c2)c2c1C=Nc1cc(S(=O)(=O)N3CCOCC3)ccc1O2 | > 10 µM | IC50 (PBLUC_HILL_SLOPE 4.52, PBLUC_R_SQUARED 0.617, read-out: LUCIFERASE INFECTION ASSAY - IC50): 8.73 µM
CCOc1cc(/C=C/C(=O)c2ccc3c(c2)OCCO3)cc(Br)c1OCC(=O)N(C)C | 9.9 µM | IC50 (PBLUC_HILL_SLOPE 4.45, PBLUC_R_SQUARED 0.571, read-out: LUCIFERASE INFECTION ASSAY - IC50): 6.04 µM

SMILES | IC90 | other results
Oc1c(Br)cc(Cl)cc1/C=C/c1ccc2cccc(O)c2n1 | > 8.76 µM | IC50 (PBLUC_HILL_SLOPE 4.36, PBLUC_R_SQUARED 0.823, read-out: LUCIFERASE INFECTION ASSAY - IC50): 5.59 µM
Cc1[nH]nc2ccnc(-c3cccc(Oc4ccccc4)c3)c12 | 5.52 µM | IC50 (PBLUC_HILL_SLOPE 4.64, PBLUC_R_SQUARED 0.273, read-out: LUCIFERASE INFECTION ASSAY - IC50): 3.44 µM
CCN(c1ccccc1)S(=O)(=O)c1cc(-c2oc3ccc(F)cc3c(=O)c2C)ccc1C | > 10 µM | IC50 (PBLUC_HILL_SLOPE 4.38, PBLUC_R_SQUARED 0.421, read-out: LUCIFERASE INFECTION ASSAY - IC50): 6.53 µM
CCOc1cc(C2NCC(c3ccccc3)c3c2[nH]c2ccccc32)ccc1OCC(C)C (stereo not given) | > 10 µM | IC50 (PBLUC_HILL_SLOPE 4.52, PBLUC_R_SQUARED 0.531, read-out: LUCIFERASE INFECTION ASSAY - IC50): 6.16 µM
CCNC(=O)c1cccc(Nc2ccc(C(=O)c3ccccc3)cc2)c1 | 8.6 µM | IC50 (PBLUC_HILL_SLOPE 4.36, PBLUC_R_SQUARED 0.612, read-out: LUCIFERASE INFECTION ASSAY - IC50): 5.2 µM
CC/N=c1\scc(-c2cc(C)c(C)cc2C)n1/N=C/c1c[nH]c2ccccc12 | 6.13 µM | IC50 (PBLUC_HILL_SLOPE 4.53, PBLUC_R_SQUARED 0.847, read-out: LUCIFERASE INFECTION ASSAY - IC50): 3.77 µM
COc1ccc(Nc2nccc3[nH]c(-c4cccc(F)c4)cc23)cc1O | > 10 µM | IC50 (PBLUC_HILL_SLOPE 4.51, PBLUC_R_SQUARED 0.135, read-out: LUCIFERASE INFECTION ASSAY - IC50): 9.39 µM
CC(C)N(CCNC(=O)c1ccc(CSc2nc3ccccc3s2)cc1)C(C)C | 9.07 µM | IC50 (PBLUC_HILL_SLOPE 4.35, PBLUC_R_SQUARED 0.48, read-out: LUCIFERASE INFECTION ASSAY - IC50): 5.47 µM
CC(C)c1cccc(-c2ccc3nnc(-c4cccc(Cl)c4)n3c2)c1 | > 10 µM | IC50 (PBLUC_HILL_SLOPE 4.48, PBLUC_R_SQUARED 0.207, read-out: LUCIFERASE INFECTION ASSAY - IC50): 6.48 µM
CC(C)(C)c1ccc(C2SCC(=O)N2c2ccc(Cl)cc2)cc1 (stereo not given) | 6.66 µM | IC50 (PBLUC_HILL_SLOPE 4.61, PBLUC_R_SQUARED 0.0595, read-out: LUCIFERASE INFECTION ASSAY - IC50): 4.13 µM
CCN1C(=O)N(Cc2cccc(OC)c2)C(=O)C12CCN(Cc1cn(C)c3ccccc13)CC2 | > 7.16 µM | IC50 (PBLUC_HILL_SLOPE 4.47, PBLUC_R_SQUARED 0.0939, read-out: LUCIFERASE INFECTION ASSAY - IC50): 6.08 µM
CC(=O)Nc1cccc(-c2cn3c(-c4ccc(CO)cc4)cnc3cn2)c1 | > 9.21 µM | IC50 (PBLUC_HILL_SLOPE 4.55, PBLUC_R_SQUARED 0.47, read-out: LUCIFERASE INFECTION ASSAY - IC50): 6.15 µM
Cc1onc(-c2c(F)cccc2Cl)c1C(=O)ON=C1C2CC3CC(C2)CC1C3 | 4.84 µM | IC50 (PBLUC_HILL_SLOPE 4.6, PBLUC_R_SQUARED 0.401, read-out: LUCIFERASE INFECTION ASSAY - IC50): 3 µM
CCN1C(=O)N(CCc2ccccc2)C2(CCN(Cc3ccc(C)cc3)CC2)C1=O | > 8.14 µM | IC50 (PBLUC_HILL_SLOPE 4.45, PBLUC_R_SQUARED 0.239, read-out: LUCIFERASE INFECTION ASSAY - IC50): 6.04 µM
CN(CCOc1ccc(Br)cc1)C(=O)c1[nH]nc2ccccc12 | > 10 µM | IC50 (PBLUC_HILL_SLOPE 4.37, PBLUC_R_SQUARED 0.302, read-out: LUCIFERASE INFECTION ASSAY - IC50): 6.76 µM
COCOc1ccc(-c2cc(-c3cccc(NC(C)=O)c3)cnc2N)cc1 | 5.97 µM | IC50 (PBLUC_HILL_SLOPE 4.33, PBLUC_R_SQUARED 0.629, read-out: LUCIFERASE INFECTION ASSAY - IC50): 3.59 µM
O=[N+]([O-])c1ccc(C2Nc3ccc(F)cc3N2)s1 (stereo not given) | 6.65 µM | IC50 (PBLUC_HILL_SLOPE 4.41, PBLUC_R_SQUARED 0.496, read-out: LUCIFERASE INFECTION ASSAY - IC50): 4.04 µM
Cc1nc2ccccc2n1CCC(=O)Nc1cccc(Cl)c1 | 8.51 µM | IC50 (PBLUC_HILL_SLOPE 4.62, PBLUC_R_SQUARED 0.253, read-out: LUCIFERASE INFECTION ASSAY - IC50): 5.29 µM
COc1ccc2nc3cc(Cl)ccc3c(N(C)CCc3ccc(OC)c(OC)c3)c2c1 | 0.33 µM | IC50 (PBLUC_HILL_SLOPE 4.42, PBLUC_R_SQUARED 0.447, read-out: LUCIFERASE INFECTION ASSAY - IC50): 0.201 µM
COc1cc(-c2cc(-c3cc(OC)c(OC)c(OC)c3)cnc2N)ccc1O | 6.84 µM | IC50 (PBLUC_HILL_SLOPE 4.32, PBLUC_R_SQUARED 0.78, read-out: LUCIFERASE INFECTION ASSAY - IC50): 4.12 µM
